Laboratory results from the supplement of paper PMC10307832.

Assays:
Assay in all cases: relative viability (nuclei count vs DMSO), 5 days (fraction); higher = more cells survive
Dovitinib + Pemetrexed = compound: CN1CCN(c2ccc3nc(-c4c(N)c5c(F)cccc5[nH]c4=O)[nH]c3c2)CC1 [Dovitinib] + Nc1nc2[nH]cc(CCc3ccc(C(=O)N[C@@H](CCC(=O)O)C(=O)O)cc3)c2c(=O)[nH]1 [Pemetrexed] (partner 0.2 µM)
Method in brief: (§1)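 Dosing by pin tool came one day after lung cancer cell lines were seeded in 1536-well plates, using either one drug or a fixed anchor-drug dose plus five library-drug doses (not always all listed) in √10 steps. After 5 days, nuclei were counted on 4× images. Relative viability is treated-well nuclei count divided by vehicle-well nuclei count, and values are medians of duplicate plates.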

Dovitinib + OSI-027 = compound: CN1CCN(c2ccc3nc(-c4c(N)c5c(F)cccc5[nH]c4=O)[nH]c3c2)CC1 [Dovitinib] + COc1cccc2cc(-c3nc([C@H]4CC[C@H](C(=O)O)CC4)n4ncnc(N)c34)[nH]c12 [OSI-027] (partner 0.5 µM)
Method in brief: as §1

Dovitinib + Foretinib = compound: CN1CCN(c2ccc3nc(-c4c(N)c5c(F)cccc5[nH]c4=O)[nH]c3c2)CC1 [Dovitinib] + COc1cc2c(Oc3ccc(NC(=O)C4(C(=O)Nc5ccc(F)cc5)CC4)cc3F)ccnc2cc1OCCCN1CCOCC1 [Foretinib] (partner 0.25 µM)
Method in brief: as §1

Dovitinib + AZD7762 = compound: CN1CCN(c2ccc3nc(-c4c(N)c5c(F)cccc5[nH]c4=O)[nH]c3c2)CC1 [Dovitinib] + NC(=O)Nc1cc(-c2cccc(F)c2)sc1C(=O)N[C@H]1CCCNC1 [AZD7762] (partner 0.2 µM)
Method in brief: as §1

| Cell Line | relative viability (Dovitinib + Pemetrexed; first compound 0.02 µM) | relative viability (Dovitinib + Pemetrexed; first compound 0.06325 µM) | relative viability (Dovitinib + Pemetrexed; first compound 0.2 µM) | relative viability (Dovitinib + Pemetrexed; first compound 0.6325 µM) | relative viability (Dovitinib + Pemetrexed; first compound 2 µM) | relative viability (Dovitinib + OSI-027; first compound 0.02 µM) | relative viability (Dovitinib + OSI-027; first compound 0.06325 µM) | relative viability (Dovitinib + OSI-027; first compound 0.2 µM) | relative viability (Dovitinib + OSI-027; first compound 0.6325 µM) | relative viability (Dovitinib + OSI-027; first compound 2 µM) | relative viability (Dovitinib + Foretinib; first compound 0.02 µM) | relative viability (Dovitinib + Foretinib; first compound 0.06325 µM) | relative viability (Dovitinib + Foretinib; first compound 0.2 µM) | relative viability (Dovitinib + Foretinib; first compound 0.6325 µM) | relative viability (Dovitinib + Foretinib; first compound 2 µM) | relative viability (Dovitinib + AZD7762; first compound 0.02 µM) | relative viability (Dovitinib + AZD7762; first compound 0.06325 µM) | relative viability (Dovitinib + AZD7762; first compound 0.2 µM) | relative viability (Dovitinib + AZD7762; first compound 0.6325 µM) | relative viability (Dovitinib + AZD7762; first compound 2 µM) |
| --- | --- | --- | --- | --- | --- | --- | --- | --- | --- | --- | --- | --- | --- | --- | --- | --- | --- | --- | --- | --- |
| UMC-11 | 0.808 | 0.787 | 0.838 | 0.876 | 0.822 | 0.467 | 0.39 | 0.523 | 0.47 | 0.497 | 1.05 | 1.04 | 1.01 | 1 | 1.05 |  |  |  |  |  |
| NCI-H1650 | 0.404 | 0.347 | 0.395 | 0.339 | 0.354 | 0.687 | 0.619 | 0.621 | 0.711 | 0.768 | 1.44 | 1.21 | 0.998 | 0.819 | 0.972 |  |  |  |  |  |
| EBC-1 |  |  |  |  |  |  |  |  |  |  | 0.105 | 0.0996 | 0.103 | 0.0933 | 0.115 |  |  |  |  |  |
| SK-LU-1 | 0.985 | 0.92 | 0.913 | 1 | 1.02 | 0.3 | 0.386 | 0.359 | 0.388 | 0.316 | 0.875 | 0.904 | 0.789 | 0.773 | 0.845 |  |  |  |  |  |
| SK-MES-1 | 0.941 | 0.958 | 0.972 | 0.966 | 1.03 | 0.56 | 0.591 | 0.605 | 0.601 | 0.612 | 0.895 | 0.993 | 0.927 | 0.86 | 0.919 |  |  |  |  |  |
| NCI-H1792 | 0.909 | 0.631 | 0.672 | 0.972 | 0.827 | 0.79 | 0.641 | 0.762 | 0.755 | 0.61 |  |  |  |  |  | 0.559 | 0.761 | 0.676 | 0.796 | 0.559 |
| SW 1573 | 0.853 | 0.859 | 0.858 | 0.868 | 0.861 | 0.715 | 0.641 | 0.676 | 0.455 | 0.725 | 0.837 | 0.913 | 0.877 | 0.88 | 0.885 |  |  |  |  |  |
| A549 |  |  |  |  |  |  |  |  |  |  | 0.943 | 0.919 | 0.954 | 0.985 | 0.975 |  |  |  |  |  |
| NCI-H1703 |  |  |  |  |  |  |  |  |  |  | 0.326 | 0.332 | 0.445 | 0.355 | 0.328 | 0.132 | 0.0996 | 0.125 | 0.114 | 0.146 |
| NCI-H520 | 0.687 | 0.683 | 0.615 | 0.596 | 0.635 | 0.279 | 0.248 | 0.334 | 0.244 | 0.23 | 0.698 | 0.894 | 0.818 | 0.733 | 0.698 |  |  |  |  |  |
| NCI-H1563 | 0.692 | 0.922 | 0.933 | 0.913 | 0.829 | 0.825 | 0.797 | 0.827 | 0.758 | 0.785 | 0.983 | 0.977 | 0.975 | 0.898 | 0.953 |  |  |  |  |  |
| NCI-H2009 | 0.967 | 1.06 | 1.03 | 0.979 | 1.03 | 0.546 | 0.621 | 0.642 | 0.638 | 0.611 | 1.16 | 1.25 | 1.22 | 1.15 | 1.27 |  |  |  |  |  |
